Measured values taken from paper PMC11591545 (Antibiotics, 2024).
Converted amounts (≈) assume the structure as drawn. Where two headings read alike, the source gives them in different places.

How the values were obtained:
S. aureus = test: Individual fAUC24 h/MIC at the end of the dosing interval in VAD patients; settings: last 24 h before redosing
Experimental: To use a conservative approach in suppressive therapy reflecting efficacy in the crucial phase before redosing, the AUC was calculated at the end of the dosing interval (last 24 h before redosing) [21].

clinical [1] = settings: human, serum, iv, 1500 mg; SD
Experimental: (§1) Sampling was routinely performed on three occasions for each patient at day 1 (30 min after the end of the infusion), day 7 (before redosing), and day 42 (before redosing). Blood samples were centrifuged (5 min, 4000 rpm) immediately after collection and aliquoted into 2 mL propylene tubes (Eppendorf, Hamburg, Germany). Aliquots were stored at −20 °C within 60 min after sample collection for a maximum of 4 weeks until assay. […] To obtain the unbound fraction, samples were prepared by solid phase extraction using a Nanosep® filter (Pall, New York, NY, USA) [18]. The limit of quantification (QL) was 12.5 mg/L for the total concentration and 1 mg/L for the unbound fraction [18].

clinical [2] = settings: human, in vivo, iv
[3] = tested on: S. aureus infection isolates; test: MIC strips test and broth microdilution assay according to EUCAST; type: cell-based, Staphylococcus aureus
Experimental: The MIC was tested with the MIC strips test (Liofilchem, Roseto degli Abruzzi, Italy) and broth microdilution assay according to EUCAST standards and the manufacturer’s instructions. All patients with VAD-associated infections were included in a register study after providing informed consent. A positive vote of the ethics committee of Heidelberg University Hospital was obtained before the start of the study (S-674/2022). […] Clinical data and laboratory and microbiological results were extracted.

[4] = cited from earlier work
[5] = in vivo
[6] = human
Experimental: as §1

[7] = label; cited from earlier work
[8] = fixed in the final model, based on a previous reported value; cited from earlier work
[9] = serum, mean ± SD
Experimental: as §1

Compound: CN[C@H]1C(=O)N[C@@H]2Cc3ccc(cc3)Oc3cc4cc(c3O[C@@H]3O[C@H](C(=O)O)[C@@H](O)[C@H](O)[C@H]3NC(=O)CCCCCCCCC(C)C)Oc3ccc(cc3Cl)[C@@H](O)[C@@H]3NC(=O)[C@H](NC(=O)[C@@H]4NC(=O)[C@@H](NC2=O)c2cc(cc(O)c2Cl)Oc2cc1ccc2O)c1ccc(O)c(c1)-c1c(O[C@H]2O[C@H](CO)[C@@H](O)[C@H](O)[C@@H]2O)cc(O)cc1[C@@H](C(=O)NCCCN(C)C)NC3=O [dalbavancin]
- fAUC24 h/MIC (S. aureus; patient 1): 141
- fAUC24 h/MIC (S. aureus; patient 2): 318
- fAUC24 h/MIC (S. aureus; patient 3, MIC not available, calculated with S. aureus breakpoint 0.25 mg/L): 26
- fAUC24 h/MIC (S. aureus; patient 4, MIC not available, calculated with S. aureus breakpoint 0.25 mg/L): 127
- fAUC24 h/MIC (S. aureus; patient 5): 110
- fAUC24 h/MIC (S. aureus; patient 6, MIC not available, calculated with S. aureus breakpoint 0.25 mg/L): 49
- fAUC24 h/MIC (S. aureus; patient 7): 165
- fAUC24 h/MIC (S. aureus; patient 8): 253
- fAUC24 h/MIC (S. aureus; patient 9): 582
- fAUC24 h/MIC (S. aureus; patient 10): 60
- fAUC24 h/MIC (S. aureus; patient 11): 311
- fAUC24 h/MIC (S. aureus; patient 12): 104
- fAUC24 h/MIC (S. aureus; patient 13): 84
- level at 0.5 h (clinical [1]): 218000 ± 65900 ng/mL
- level at 168 h (clinical [1]): 41100 ± 11100 ng/mL
- level at 1008 h (clinical [1]): 13200 ± 9900 ng/mL
- Vd (clinical [2]): 21.9 L
- clearance (clinical [2]): 0.833 mL/min
- MIC ([3]; isolate of patient 1): 0.064 µg/mL (≈ 0.0352 µM)
- MIC ([3]; isolate of patient 2): 0.064 µg/mL (≈ 0.0352 µM)
- MIC ([3]; isolate of patient 5): 0.094 µg/mL (≈ 0.0517 µM)
- MIC ([3]; isolate of patient 7): 0.047 µg/mL (≈ 0.0259 µM)
- MIC ([3]; isolate of patient 8): 0.047 µg/mL (≈ 0.0259 µM)
- MIC ([3]; isolate of patient 9): 0.064 µg/mL (≈ 0.0352 µM)
- MIC ([3]; isolate of patient 10): 0.125 µg/mL (≈ 0.0688 µM)
- MIC ([3]; isolate of patient 11): 0.064 µg/mL (≈ 0.0352 µM)
- MIC ([3]; isolate of patient 12): 0.047 µg/mL (≈ 0.0259 µM)
- MIC ([3]; isolate of patient 13): 0.064 µg/mL (≈ 0.0352 µM)
- population VD ([4]; earlier population PK studies): 15.0 to 16.7 L
- half-life ([4]; reported): 15.6 days
- clearance (CL) ([4]; three-compartment model, ref Carrothers et al. 14): 0.053 L/h
- clearance (CL) ([4]; two-compartment model, ref Buckwalter et al. 11): 0.057 L/h
- clearance (CL) ([4]; two-compartment model, ref Cojutti et al. 13): 0.041 L/h
- CL, bootstrap mean (CI 95%) [5]: 0.050 (0.044–0.055) L/h
- V1, bootstrap mean (CI 95%) [5]: 6.42 (5.65–7.31) L
- V1, central volume of distribution, estimate [5]: 6.5 L
- V2, bootstrap mean (CI 95%) [5]: 14.99 (12.46–18.67) L
- V2, peripheral volume of distribution, estimate [5]: 15.4 L
- observed protein binding [6]: 96-98%
- labeled protein binding [7]: 93%
- Q, inter-compartmental clearance [8]: 0.476 L/h
- fcday1 (unbound concentration day 1) ([9]; end of infusion after the first dose): 6.3 ± 2.7
- fcday8 (unbound concentration day 8) ([9]; trough by the end of the first week): 1.3 ± 0.6
